Reference: patent US6720313B1, “Biocidal composition containing phosphite ions” (Mattersmiths Holdings Limited, priority 1998, dated 2004)
In brackets after ≈: the same amount, converted by molar mass. Like-named read-outs stand apart in the source and are kept apart here.

Tests used:
[1] = metal oxinates; cited from earlier work
[2] = precipitation of solubilised biocides on addition of a higher pH solution; assay type: physicochemical; details: aqueous solutions, pH raised to greater than 5
Excerpt: We carried out several studies, some in aqueous systems and others on wood subsequent to the biocide formulation being applied, wherein we applied a further solution with higher pH to increase the pH to greater than 5.

[3] = Experimental: These are prepared by addition of stoicheiometric quantities of precursors of the compounds concerned to produce the salt desired.
[4] = cited from earlier work
[5] = assay type: physicochemical
Excerpt: We decreased the pH by addition of phosphorous acid.
We have achieved solubility of fenpropimorph of as much as 10% by weight. This high level of solubility remains when that active is also the presence of 10-20% of other biocides.

[6] = test system: natural fungal inoculum on mini discs of Pinus radiata; assay: mini disc trial of fungicidal efficacy; assay type: cell-based; details: compared with untreated control
Experimental: For example, a mini disc trial, typically used to assess formulation efficacy, was used to establish relative efficacy of various formulations. Included in the trial were formulations using both phosphoric acid and phosphorous acid.
These examples were then diluted in water to produce stable solutions and then tested against a natural fungal inoculum on mini discs of Pinus radiata to determine fungicidal efficacy. The following table, Table 5, illustrates the relative performance of each biocide after 3 weeks in an incubator.
These formulations were then diluted and tested using the mini disc method. Also included was an industry standard based on the formulation of U.S. Pat. No. 4,950,685 coded in the trial as KC1 and listed in Table 7.
The formulations were then tested using a mini disc trial with results as disclosed in Table 9.

[7] = cited from earlier work; remark: listed apart in the source
[8] = solubility studies of oxine copper using the invention; assay type: physicochemical
Excerpt: We have carried out many solubility studies using the technology of this invention. For example, we are able to produce solutions stable at ambient temperature of oxine copper at concentrations greater than 100 grams per 200 mls of final product. Because the specific gravity of such solutions is approximately […] this yields a solution of oxine copper of 50 per cent weight/volume or more. This concentration is commercially viable to use and eliminates many of the potentially toxic or flammable formulation aids used in prior art solubilisation of oxine copper.

[9] = acids including phosphorous acid; cited from earlier work

For [Al+3].[O-]c1cccc2cccnc12.[O-]c1cccc2cccnc12.[O-]c1cccc2cccnc12 [Aluminium], the pH complete precipitation [1] is listed as 4.7-9.8 and the pH initial precipitation [1] is listed as 2.9.
In the case of [Cd] [Cadmium], the pH complete precipitation [1] is given as 5.5-13.2 and the pH initial precipitation [1] is given as 4.5.
In the case of [Ca] [Calcium], the pH complete precipitation [1] is listed as 9.2-12.7 and the pH initial precipitation [1] is listed as 6.8.
For COC(=O)Nc1nc2ccccc2[nH]1 [Carbendazim, methyl benzimidazoyl carbamate], the “effect of adding a solution of higher pH” value [2] was “immediate precipitation”.
In the case of [Co+2].[O-]c1cccc2cccnc12.[O-]c1cccc2cccnc12 [Cobalt], the pH for dissolution ([3]; transition metal phosphites) is given as less than 4.5, the pH complete precipitation [1] is given as 4.9-11.6 and the pH initial precipitation [1] is given as 3.6.
In the case of [Fe+3].[O-]c1cccc2cccnc12.[O-]c1cccc2cccnc12.[O-]c1cccc2cccnc12 [Iron], the pH for dissolution ([3]; transition metal phosphites) is given as less than 3.5, the “Solubility at pH = 7” value ([3]; transition metal phosphites, pH = 7) is given as “Insoluble” and the pH complete precipitation [1] is given as 4.1-11.2. For the same compound, the pH initial precipitation [1] was 2.5.
For [O-]c1cccc2cccnc12.[O-]c1cccc2cccnc12.[Pb+2] [Lead], the pH complete precipitation [1] is given as 8.4-12.3 and the pH initial precipitation [1] is given as 4.8.
For [Mg] [Magnesium], the pH complete precipitation [1] is listed as greater than 8.7 and the pH initial precipitation [1] is listed as 7.0.
For [Mn+2] [Manganese], the “Solubility at pH = 7” value [3] is given as “Insoluble”, the pH for dissolution ([3]; transition metal phosphites) is given as less than 4.5 and the pH complete precipitation [1] is given as 5.9-9.5. For the same compound, the pH initial precipitation [1] was 4.3.
For [Mo] [Molybdenum], the pH complete precipitation [1] is listed as 3.6-7.3 and the pH initial precipitation [1] is listed as 2.0.
For [Ni+2].[O-]c1cccc2cccnc12.[O-]c1cccc2cccnc12 [Nickel], the pH for dissolution [3] is listed as less than 4.5, the pH complete precipitation [1] is listed as 4.6-10.0 and the pH initial precipitation [1] is listed as 3.5.
For [O-]c1cccc2cccnc12.[O-]c1cccc2cccnc12.[Zn+2] [Zinc], the pH complete precipitation [1] is listed as greater than 4.4 and the pH initial precipitation [1] is listed as 3.3.
For CC(Cc1ccc(C(C)(C)C)cc1)CN1C[C@@H](C)O[C@@H](C)C1 (some centres unmarked) [fenpropimorph, dimethylethyl phenyl methylpropyl dimethylmorpholine], the Solubility ([4]; pH 4.4) is given as 7300 µg/mL (≈ 24100 µM), the Solubility ([4]; pH 7) is given as 4.3 µg/mL (≈ 14.2 µM) and the Solubility ([4]; pH 9) is given as 3.5 µg/mL (≈ 11.5 µM). For the same compound, the solubility achieved [5] was no more than 10 % by weight.
With OP(O)O [phosphorous acid] the “fungicidal activity of phosphorous acid alone” value [6] was “marginal improvement over the untreated control”.
For Bismuth, the pH complete precipitation [1] is given as 5.2-9.4 and the pH initial precipitation [1] is given as 3.7.
For Titanium, the pH complete precipitation [1] is given as 4.8-8.6 and the pH initial precipitation [1] is given as 3.6.
For Tungsten, the pH complete precipitation [1] is given as 5.0-5.7 and the pH initial precipitation [1] is given as 3.5.
In the case of arsenic, the “LD50 Rat” value [7] is given as 15 to 293 mg/kg.
For copper, the “Solubility at pH = 7” value [3] is given as “Insoluble”, the pH for dissolution ([3]; transition metal phosphites) is given as less than 3.5 and the pH complete precipitation [1] is given as greater than 3.3. For the same compound, the pH initial precipitation [1] was 3.0.
For “copper 8-hydroxyquinolinolate [oxine copper]”, the “effect of adding a solution of higher pH” value [2] was “immediate precipitation”, the solution concentration weight/volume ([8]; ambient temperature) was no less than 50 per cent weight/volume and the “concentration of solutions stable at ambient temperature” value ([8]; phosphorous acid solution) was “greater than 100 grams per 200 mls of final product”. The pH complete precipitation [1] was “greater than 3.3” and the “Oral LD50 Rat” value ([7]; in vivo, po) was 10,000 mg/kg.
For mancozeb, the stability to acids [9] is given as “decomposed by acids”.
For maneb, the stability to acids [9] is given as “decomposed by acids”.
For phosethyl-Al, the stability to acids [9] is given as “decomposed by acids”.
